The text below walks through data of the METLIN SMRT retention time set (Domingo-Almenara et al. 2019).

The data set can be described thus: gradient 5% acetonitrile 3 min, to 50% in 2 min, to 85% in 15 min, held 3 min, 100 µL/min. The following applies: column: Zorbax Extend-C18 2.1 x 50 mm; eluents: water / acetonitrile, 0.1% formic acid. Put shortly:
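Values are retention times taken from adduct peaks that software picked and an analyst inspected. The pure standards were run as mixtures of ~100 molecules on HPLC linked to a quadrupole time-of-flight mass spectrometer, in positive and negative ionization mode. A Zorbax Extend-C18 column (2.1 × 50 mm, 1.8 μm) was used at 100 μL/min with water and acetonitrile, each including 0.1% formic acid.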
Take `Fc1ccc(-c2nc(-c3cccc(-c4ccn[nH]4)c3)no2)cc1`: the RP-LC retention time was found to be 1000 s.
Take `Cc1cc(Nc2ccccc2)nc(N2CCN(C(=O)Nc3cccc(Cl)c3)CC2)n1`: the RP-LC retention time was 763 s.
The molecule `O=C(C1CCC(=O)N1S(=O)(=O)c1ccccc1)N1CCCCC1` (configuration not stated) yielded an RP-LC retention time of 757 s.
With `O=C(Cn1cnc(-c2noc(-c3ccncc3)n2)c1)N1CCc2ccccc21`, the RP-LC retention time stood at 634 s.
The value for `CCc1[nH]nc(S(=O)(=O)N2CCN(c3ccccn3)CC2)c1C(=O)OC` was 560 s; that for `CCSc1nnc(NC(=O)c2cc(=O)c(OCc3cccc(OC)c3)cn2C)s1` was 685 s.
To `COc1cccc(CNC(=O)Nc2cc3c(cc2N2CCOCC2)n(C)c(=O)n3C)c1` belongs 723 s; to `COc1ccc(Cl)cc1NC(=O)c1cc2c(=O)oc3ccccc3c2n1C`, 1110 s; to `COCCCNC(=O)C1CCN(c2nnc(-c3ccccc3)o2)CC1`, 659 s.
As to `CCn1c(C(=O)NCc2ccc(F)cc2)cc2sc(Cl)cc21`, the RP-LC retention time came out at 1140 s.
The value for `COc1ccccc1-c1noc(CCn2nc(-c3ccccc3)ccc2=O)n1` was 817 s; that for `CCOC(=O)c1c(S(=O)(=O)N2CCC(C(=O)NCc3ccc(C)cc3)CC2)c(C)n(C)c1C` was 841 s; that for `CCCNC(=O)CCC1CCN(c2cc(NC3CC3)ncn2)CC1` was 600 s.
Take `COc1ccc(-c2nnc(COc3ccc(NC(=O)c4cccnc4)cc3)o2)cc1`: the RP-LC retention time stood at 711 s.
`O=C1[C@H]2CN(Cc3cccc(Cl)c3F)C[C@H]2C(=O)N1CCc1ccccc1` returned an RP-LC retention time of 992 s.
As to `N#Cc1ccc(O[C@@H]2c3ccccc3C[C@H]2N2CCC[C@@H](N)C2)c(Cl)c1`, the RP-LC retention time worked out at 707 s.
As to `O=C(NCC1CC1)c1cccc(OC2CN(Cc3cc4ccccc4nc3Cl)C2)c1`, the RP-LC retention time was determined as 667 s.
`CC(C)c1ccc(S(=O)(=O)N2CCCC2c2nc(-c3cccc(F)c3)no2)cc1` (configuration not stated): the RP-LC retention time stood at 1270 s.
With `O=C(CN1CCN(C(=O)Nc2ccccc2)CC1=O)N1CCN(c2ccccc2)CC1`, the RP-LC retention time was determined as 696 s.
To `CC(NC(=O)c1cn2cc(Cl)ccc2n1)c1ccc(F)cc1` (configuration not stated) belongs 836 s; to `Cc1cccc(NC(=O)N2CCc3[nH]cnc3C2c2ccncc2)c1C` (configuration not stated), 546 s; to `CC(C)CN1C(=O)CSc2cnn(CC(=O)N3CCN(c4ccccc4)CC3)c(=O)c21`, 823 s.
To `O=S(=O)(c1cccn2cnnc12)N(Cc1ccccc1F)c1ccc(F)c(F)c1` belongs 867 s.
In the case of `CCCCC(=O)Nc1ccc2nc(N3CCN(c4cccc(C)c4C)CC3)cc(C(=O)O)c2c1`, the RP-LC retention time turned out to be 776 s.
Consider `Cc1cnc(CC2CCN(C(=O)C3CCC3)C2)n1C(C)C` (configuration not stated), for which the RP-LC retention time amounted to 585 s.
`Cn1nc(C(=O)Nc2ccccc2)c2c1CCN(C(=O)NCC1CCCO1)C2` (configuration not stated) came in with an RP-LC retention time of 702 s.
As to `Cn1c(=O)c2nc(S(=O)(=O)CCC(=O)Nc3cc(Cl)ccc3F)n(C)c2n(C)c1=O`, the RP-LC retention time worked out at 771 s.
The value for `O=C1CC(c2ccc(C(=O)O)cc2)c2scc(-c3ccccc3F)c2N1` (configuration not stated) was 804 s; that for `O=C(NCc1ccco1)C1CCCN(c2nc3ccccc3[nH]c2=O)C1` (configuration not stated) was 721 s.
Take `Cc1cc(Cl)ccc1NC(=O)C1CCN(S(=O)(=O)c2ccc3c(c2)NC(=O)CO3)CC1`: the RP-LC retention time came to 839 s.
Take `O=S(=O)(c1ccc2nc(N3CCN(Cc4ccc5c(c4)OCO5)CC3)cnc2c1)N1CCCCC1`: the RP-LC retention time was 728 s.
`COc1ccc(NC(=O)C(C)C2CCN(C(=O)Nc3ccc(F)cc3)CC2)cc1` (configuration not stated) displayed an RP-LC retention time of 799 s.
